# Measurements taken from US20260151358A1, “METHODS OF TREATING, AMELIORATING, AND/OR PREVENTING STRESS-RELATED DISORDER” (Yale University, priority 2022, published 2026).
# “Also recorded” adds a separate entry of the source.
# What was measured:
# dlPFC function = conditions: published data, Li et al. 1994; cited from earlier work
# dlPFC Delay cells = assay: Single unit recording with iontophoresis of dlPFC Delay cells in monkeys performing the ODR working memory task; format: in vivo, rhesus macaques; conditions: for PFC neuronal firing (Delay cell firing): FIGS. 9A-9B, monkeys performing a working memory task; for delay-related firing for nonpreferred directions / delay-related firing of dlPFC Delay cells for the neurons' preferred direction / d′ measure of spatial tuning: iontophoresis, vs control, ODR task; for effect on the S-Bay (LTCC agonist)-induced reduction of Delay cell firing: pretreatment
# Description: The physiological contributions of LTCC and β1-AR signaling were examined at the cellular level in rhesus macaques performing the oculomotor delayed response (ODR) spatial working memory task (FIG. 4A) to determine how they influence the neuronal firing needed for working memory and higher cognition. Recordings were made from the caudal principal sulcus (FIG. 4B) using an iontophoretic electrode (FIG. 4C) that allows minute ejection of charged compounds onto the neuron being recorded. The dlPFC contains “Delay cells” that are able to fire across the length of the delay period while the subject is remembering a location (FIG. 4D); this persistent firing is spatially tuned for the neuron's preferred direction, thus representing visual space in working memory. The effects of β1-AR-Cav1.2 signaling on dlPFC “Delay cell” firing were tested using single unit recordings coupled with iontophoresis in adult and aged rhesus monkeys performing the ODR task using repeated measures analyses. Aged monkeys have naturally-occurring calcium dysregulation, and thus are particularly useful for examining agents that reduce calcium signaling. As there are no compounds selective for Cav1.2, these experiments used agents targeting all LTCCs (i.e. Cav1.2 and Cav1.3 in dlPFC).
# rhesus monkeys = assay: Stress-induced (FG7142) working memory deficits, spatial delayed response task, systemic administration; format: in vivo; conditions: for stress-induced working memory (cognitive) deficits: pretreatment, FG7142-treated animals, delayed response task; for effect of the selected dose alone on working memory performance: without stressor; for stress-induced cognitive deficits: monkeys
# Description: The final experiments examined whether systemic administration of compounds that block β1-AR or LTCCs prevent stress-induced working memory deficits in rhesus monkeys (n=6), as predicted by the physiological data. This experiment used the LTCC blocker, nimodipine, which normalizes dlPFC working memory in human subjects carrying the CACNA1C allele that increases channel expression. The current experiments tested the effects of β1-AR or LTCC blockade on stress-induced working memory deficits in adult monkeys performing the spatial delayed response task in a Wisconsin General Test Apparatus. The anxiogenic inverse benzodiazepine agonist, FG7142, was used as a pharmacological stressor, as it produces a classic stress response including cortisol release in humans and monkeys, yet allows precise dosing to produce a mild response that impairs accuracy without impeding motivation for testing for food rewards. […]; post-hoc comparisons: vehicle+vehicle vs. vehicle+stress, p=0.001; […]; post-hoc comparisons: vehicle+vehicle vs. vehicle+stress, p=0.0009; vehicle+stress vs. nimodipine+stress, p=0.0006).
# test animals = assay: Working memory (cognition) after β1-AR or β2-AR blockade (FIG. 11); format: in vivo
# [1] = biological target: β3-adrenergic receptor subtype (β3-AR) (Homo sapiens, UniProt P13945); conditions: cited from earlier work
# Sequence of β3-adrenergic receptor subtype (β3-AR) (P13945 whole entry): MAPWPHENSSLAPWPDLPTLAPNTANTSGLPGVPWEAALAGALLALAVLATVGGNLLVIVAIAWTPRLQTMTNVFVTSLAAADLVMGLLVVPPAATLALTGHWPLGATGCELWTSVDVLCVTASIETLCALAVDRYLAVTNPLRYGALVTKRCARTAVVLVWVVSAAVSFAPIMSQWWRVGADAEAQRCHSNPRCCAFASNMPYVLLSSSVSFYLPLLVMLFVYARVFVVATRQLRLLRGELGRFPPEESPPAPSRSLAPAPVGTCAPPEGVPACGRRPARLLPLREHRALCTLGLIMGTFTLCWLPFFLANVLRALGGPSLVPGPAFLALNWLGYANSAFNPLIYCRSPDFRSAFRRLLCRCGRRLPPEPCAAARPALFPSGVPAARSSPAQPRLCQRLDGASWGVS
smiles,measurement,setting,value
"CC(C)NCC(O)COc1cccc2ccccc12 (racemic) [propranolol, (RS)-1-(1-methylethylamino)-3-(1-naphthyloxy)propan-2-ol]",effect on dlPFC function,dlPFC function,little effect
"O=C(NCCNCC(O)COc1ccc(O)cc1)N1CCOCC1 (racemic) [xamoterol, (RS)—N-(2-{[2-hydroxy-3-(4-hydroxyphenoxy)propyl]amino}ethyl)morpholine-4-carboxamide]",PFC neuronal firing (Delay cell firing),dlPFC Delay cells,reduces PFC neuronal firing
same,delay-related firing for nonpreferred directions,dlPFC Delay cells,not for nonpreferred directions
same,delay-related firing of dlPFC Delay cells for the neurons' preferred direction,dlPFC Delay cells,reduced delay-related firing
same,d′ measure of spatial tuning,dlPFC Delay cells,significant reduction
"CC[C@H](NC(C)C)[C@H](O)c1ccc(O)c2[nH]c(=O)ccc12 (relative stereo) [procaterol, (±)-(1R,2S)-rel-8-hydroxy-5-[1-hydroxy-2-(isopropylamino)butyl]-quinolin-2 (1H)-one]",PFC neuronal firing (Delay cell firing),dlPFC Delay cells,increases delay cell firing
"COC(=O)C1=C(C)NC(C)=C([N+](=O)[O-])[C@H]1c1ccccc1C(F)(F)F [(S)-(−)-Bay-K 8644, (−)-methyl 2,6-dimethyl-5-nitro-4 (S)-[2-(trifluoromethyl)phenyl]-1,4-dihydropyridine-3-carboxylate]",delay-related firing of dlPFC Delay cells for the neurons' preferred direction,dlPFC Delay cells,reduced delay-related firing
same,d′ measure of spatial tuning,dlPFC Delay cells,decreased
CNC(=O)c1cc2c(cn1)[nH]c1ccccc12 [FG7142],working memory performance compared to vehicle+vehicle control,"rhesus monkeys; vehicle pretreatment + pharmacological stressor, n=6",significantly impaired performance
"Cc1ccc(OCC(O)C(C)NC(C)C)c2c1CCC2 (centres unmarked) [IC1118551, 3-(isopropylamino)-1-[(7-methyl-4-indanyl)oxy]butan-2-ol]",cognition (working memory),"test animals; 0.1 mg/kg, FIG. 11, n=1",impaired cognition
"c1ccc2c(c1)CCC[C@H]2Nc1nc2ccccc2[nH]1 [NS8593, N-[(1R)-1,2,3,4-tetrahydro-1-naphthalenyl]-1H-benzimidazol-2-amine]",delay-related firing for nonpreferred directions,dlPFC Delay cells,smaller increase
same,delay-related firing of dlPFC Delay cells for the neurons' preferred direction,dlPFC Delay cells,significantly increased delay firing
same,d′ measure of spatial tuning,dlPFC Delay cells,significant increase
same,effect on the S-Bay (LTCC agonist)-induced reduction of Delay cell firing,dlPFC Delay cells,blocked
"CCN(c1ccccc1)c1cc(NC)[n+](C)c(C)n1 [ZD7288, N-ethyl-1,6-dihydro-1,2-dimethyl-6-(methylimino)-N-phenyl-4-pyrimidinamine]",effect on the S-Bay (LTCC agonist)-induced reduction of Delay cell firing,dlPFC Delay cells,blocked
"CC(C)NCC(O)COc1ccc(CCOCC2CC2)cc1 (centres unmarked) [betaxolol, 1-{4-[2-(cyclopropylmethoxy)ethyl]phenoxy}-3-(propan-2-ylamino)propan-2-ol]",pKD value for β3-AR,[1],5.97±0.08
same,stress-induced working memory (cognitive) deficits,rhesus monkeys,prevented working memory deficits; also recorded: blocked stress-induced cognitive deficits
same,effect of the selected dose alone on working memory performance,rhesus monkeys,no effect on their own
same,delay-related firing of dlPFC Delay cells for the neurons' preferred direction,dlPFC Delay cells,enhanced delay-related firing
same,d′ measure of spatial tuning,dlPFC Delay cells,increased
"OC(CNCC(O)C1CCc2cc(F)ccc2O1)C1CCc2cc(F)ccc2O1 (centres unmarked) [nebivolol, 1-(6-fluoro-3,4-dihydro-2H-chromen-2-yl)-2-[[2-(6-fluoro-3,4-dihydro-2H-chromen-2-yl)-2-hydroxyethyl]amino]ethanol]",cognition (working memory),"test animals; 1.0 mg/kg, FIG. 11",improved cognition
same,stress-induced cognitive deficits,"rhesus monkeys; 0.01 mg/kg, FIG. 10B",blocked stress-induced cognitive deficits
same,stress-induced cognitive deficits,"rhesus monkeys; 0.1 mg/kg, FIG. 10A",blocked stress-induced cognitive deficits
same,stress-induced working memory (cognitive) deficits,rhesus monkeys,prevented stress-induced cognitive deficits
"COCCOC(=O)C1=C(C)NC(C)=C(C(=O)OC(C)C)C1c1cccc([N+](=O)[O-])c1 (centres unmarked) [nimodipine, 3-(2-methoxyethyl) 5-propan-2-yl 2,6-dimethyl-4-(3-nitrophenyl)-1,4-dihydropyridine-3,5-dicarboxylate]",stress-induced working memory (cognitive) deficits,rhesus monkeys,prevented working memory deficits
same,effect of the selected dose alone on working memory performance,rhesus monkeys,no effect on their own
